Results published in PMC7980035 (The Journal of Biological Chemistry, 2021).
Like-named read-outs stand apart in the source and are kept apart here.

Experiments:
[1] = molecular target: T1, SARS 3C-like proteinase (Severe acute respiratory syndrome coronavirus, UniProt P0C6X7); conditions: pH 7.3
[2] = format: physicochemical; conditions: pH 7.3
[3] = molecular target: T1, SARS 3C-like proteinase; conditions: pH 7.3; remark: listed apart in the source
[4] = pH 7.3
[5] = molecular target: SARS coronavirus 3C-like proteinase, C-terminal His6 tag (plasmid pET 3CLP-21x) (SARS coronavirus) (UniProt P0C6X7); test: SEC

Row | Substance | Km [1] | kcat [1] | kcat/Km [1] | Calculated secondary structure content: Helix [2] | Calculated secondary structure content: Other [2] | Calculated secondary structure content: Sheet [2] | Calculated secondary structure content: Tum [2] | kcat/Km [3] | solubility [4] | Kd [5]
1 | ATVRLQ/AGNAT [Peptide S06] | 1440 ± 470 µM | 0.0548 ± 0.0178 s⁻¹ | 2.29 ± 0.09 ^a mM^-1 min^-1 | 2 | 43 | 25 | 30 | – | – | –
2 | FYPKLQ/ASQAW [Peptide S11] | 549 ± 105 µM | 0.0262 ± 0.00467 s⁻¹ | 2.86 ± 0.21 ^a mM^-1 min^-1 | 2 | 36 | 30 | 32 | – | – | –
3 | KVATVQ/SKMSD [Peptide S03] | – | – | – | 2 | 46 | 25 | 28 | 0.353 ± 0.013 ^b mM^-1 min^-1 | – | –
4 | NRATLQ/AIASE [Peptide S04] | – | – | – | 2 | 45 | 24 | 30 | 0.556 ± 0.126 ^b mM^-1 min^-1 | – | –
5 | NVATLQ/AENVT [Peptide S09] | – | – | – | – | – | – | – | 0.976 ± 0.014 ^b mM^-1 min^-1 | very low solubility | –
6 | PHTVLQ/AVGAC [Peptide S08] | 1940 ± 660 µM | 0.028 ± 0.0095 s⁻¹ | 0.865 ± 0.028 ^a mM^-1 min^-1 | 5 | 45 | 21 | 29 | – | – | –
7 | REPLMQ/SADAS [Peptide S07] | – | – | – | 1 | 41 | 18 | 40 | 0.0176 ± 0.0022 ^b mM^-1 min^-1 | – | –
8 | SARS coronavirus 3C-like proteinase, C-terminal His6 tag (plasmid pET 3CLP-21x) (from UniProt P0C6X7 3241-3546) (enzyme) | – | – | – | – | – | – | – | – | – | 100 µM
9 | SAVKLQ/NNELS [Peptide S05] | – | – | – | 10 | 44 | 19 | 27 | 0.202 ± 0.003 ^b mM^-1 min^-1 | – | –
10 | SGVTFQ/GKFKK [Peptide S02] | 583 ± 86 µM | 0.0425 ± 0.00583 s⁻¹ | 4.38 ± 0.26 ^a mM^-1 min^-1 | 3 | 31 | 42 | 24 | – | – | –
11 | TFTRLQ/SLENV [Peptide S10] | 286 ± 20 µM | 0.0141 ± 0.00085 s⁻¹ | 2.96 ± 0.11 ^a mM^-1 min^-1 | 4 | 41 | 22 | 33 | – | – | –
